The test system of the assay is dithiothreitol-insensitive PAF choline phosphotransferase (PAF-CPT). Description: PAF-CPT activity assay on leukocyte homogenate. As to conditions: rabbit leukocyte homogenate; Figure 8. Format: biochemical. As to the method:
The experiment on the inhibitory effect of each compound of interest against the washed rabbit platelets (WRPs) aggregation was carried out as per the already described method. The platelets were from male New Zealand white rabbits (about 20), individually housed in stainless steel cages in an air-conditioned room (19 ± 1 °C, 55 ± 5% humidity on a 12/12 h artificial light/dark cycle). Blood samples were drawn from the main ear artery. Microliters of PAF in a final concentration of about 10^–10 M were added to the cuvette of the aggregometer, and the height of the platelet aggregation was monitored. […] Dithiothreitol-insensitive PAF choline phosphotransferase, lyso-PAF:acetyl-CoA acetyltransferase and PAF-acetylhydrolase activity assays were performed on the homogenates of rabbit leukocytes while the activity of lipoprotein-associated phospholipase A2 was assessed on plasma as previously described. […] All results were expressed as mean ± standard deviation (SD). […] Data were analyzed using a statistical software package (SPSS for Windows, 16.0, 2007, SPSS Inc., Chicago, IL, USA) and Microsoft Excel 2007. […]

With [Fe(pqx)Cl2]2 [Complex 6], the “inhibition of the specific activity of PAF-CPT” value is on record as “inhibit, in a dose-dependent way”.

The values above are taken from PMC10574351, “First-Row Transition Metal Complexes Incorporating the 2-(2′-pyridyl)quinoxaline Ligand (pqx), as Potent Inflammatory Mediators: Cytotoxic Properties and Biological Activities against the Platelet-Activating Factor (PAF) and Thrombin” (Molecules, 2023).
